According to US5976781A, “Determining plasmodium in blood by sphingomyelin synthase activity” (The Board of Trustees of the Leland Stanford Junior …, priority 1995, dated 1999):

Tests used:
[1] = system: P. falciparum sphingomyelin synthase; assay: Inhibition of plasmodial sphingomyelin biosynthesis in intact infected erythrocytes (C6-NBD-ceramide to C6-NBD-sphingomyelin); format: cell-based, Plasmodium falciparum; conditions: for effect on sphingomyelin synthase enzyme activity: 5 μM compound (Example 3); for [%] inhibition of sphingomyelin biosynthetic activity: 5 μM compound
Experimental: 1×10^8 infected cells 24 h after invasion were washed serum-free in RPMI 1640 and preincubated for thirty min at 37° C. in 1 ml of RPMI 1640 containing 0-5 μM or 0-500 μM of PPMP. (C6-NBD-ceramide (N-[7-(4-nitrobenzo-2-oxa-1,3-diazide)]-6-aminocaproyl-D-erythro-sphingosine) was added to each sample at a final concentration of 5 μM, the samples further incubated for 30 min at 37° C. and cellular lipids extracted. C6-NBD-sphingomyelin was resolved by TLC and quantitated by fluorescence spectrophotometry as described previously. Bligh, E. G. and Dyer, W. Y. (1959) A rapid method for total lipid extraction and purification., Can. J. Biochem. Physiol. 37: 911-917. Haldar, K., Uyetake, L., Ahori, N., Elmendorf, H. G. and Lu, W-1. (1991) The accumulation and metabolism of a fluorescent ceramide derivative in Plasmodium falciparum-infected erythrocytes., Mo. Biochem. Parasitol. 49: 143-156. Elmendorf, H. G. and Haldar, K. (1994) Plasmodium falciparum exports the Golgi marker sphingomyelin synthase into a tubovesicular network in the cytoplasm of mature erythrocytes., J. Cell Biol. 124: 449-462. Each value obtained represented the mean of triplicate determinations from five experiments. The arrow bars indicate the standard deviations. The results are depicted in FIG. 1.
(§1) P. falciparum strain FCB was used for all experiments and cultured in vitro in according to a modification of the method of Trager and Jensen left off. Trager, W. and Jensen, J. B. (1976) Human malaria in continuous culture., Science (Wash. D.C.) 193: 673-675 Haldar, K., Ferguson, M. A. J. and Cross, G. A. M. (1985) Acylation of a Plasmodium falciparum merozoite surface antigen via sn-1, 2-diacyl glycerol. J. Biol. Chem. 260; 4969-4974 The culture medium contained RPMI 1640 supplemented with 25 Mm hepes, Ph 7.4/[…]/92 μM hypoxanthine/0.18% sodium bicarbonate/25 μM gentamicin and 10% AB^+ human sera. The parasites were grown in A^+ erythrocytes at 2.5-5% hematocrit. Parasite cultures were synchronized by separation of the early and late stages on a Percoll gradient. The subsequent reincubation of these stages in culture were used to obtain cells 12-24h in the life cycle. Inhibition of sphingomyelin biosynthetic activity using 5 μM of the various compounds was carried out as described in Example 1. 5 μM of the various compounds were added to 0-12 h rings in the culture medium and cells were examined by Giemsa staining after 24 h.

P. falciparum strain FCB = assay: Inhibition of intraerythrocytic growth in culture (Giemsa staining after 24 h); format: cell-based, Plasmodium falciparum; conditions: 5 μM compound added to 0-12 h rings
Text: as §1

DNA synthesis = assay: Effect on DNA synthesis; format: cell-based
protein synthesis = assay: Effect on protein synthesis; format: cell-based
P. falciparum schizonts = assay: Schizont maturation, merozoite invasion and ring viability in the presence of drug; format: cell-based, Plasmodium falciparum; conditions: for fate of schizonts greater than 40 h in the cycle: in the presence of 5 μM drug
[2] = system: P. falciparum sphingomyelin synthase; assay: Inhibition of sphingomyelin biosynthesis in hypotonically lysed infected erythrocytes and fractions; format: biochemical, Plasmodium falciparum
Experimental: Cells were washed serum-free in PBS and intact cells were incubated in PBS. Cells were lysed in 10 volumes of hypotonic buffer. Pellets and supernatants were separated by centrifugation at 10^4 ×G for 10 min at 4° C. Inhibition of sphingomyelin biosynthetic activity was carried out as described in Example 1. Glutamate dehydrogenase, a parasite cytosolic activity, was assayed using 10 μM alpha-ketoglutarate and 0.1 μM NADPH for 1 h at 37° C. by measuring the absorption at 340 nm in a spectrophotometer. The following table indicates the results

P. falciparum = assay: Intraerythrocytic development in long term culture, parasitemia over consecutive cycles; format: cell-based, Plasmodium falciparum
Experimental: Synchronized cultures 12 h after invasion were subjected to different concentrations of PPMP. Parasitemias of drug-treated cultures were determined at various time points during two intraerythrocytic cycles and compared to cells grown in the absence of drug.
The effect of the single lipid analogs to inhibit parasite development in long term culture in consecutive cycles of the parasite growth were investigated. The studies were initiated with synchronized, young rings (0-12 h) at 10% parasitemia. In order to ensure healthy growth of the malaria parasite in vitro, the parasitemias of the cultures are not allowed to exceed 10%. Yet under normal conditions a 3-6 fold increase in parasitemias is detected with each round of invasion: thus for each new cycle, the cultures were diluted 4-fold into fresh erythrocytes in the absence or presence of the drug. […] The lowest effective, killing concentration of PDMP over three cycles of growth is 1.0 μM.

[3] = system: tubovesicular membrane reticulum (TVM) of P. falciparum-infected erythrocytes; assay: Tubovesicular membrane (TVM) morphology by confocal microscopy with C5-DMB-ceramide; format: cell-based, Plasmodium falciparum; conditions: 5 μM PPMP; C5 DMB-ceramide staining; 240 optical sections, 20 cells
Experimental: Schizont-stage parasites isolated over Percoll were allowed to invade in the presence of RPMI 1640 containing 10% human serum or in the presence of RPMI 1640 containing 10% human serum and 5 μM PPMP. 1×10^8 infected erythrocytes of the appropriate stage were incubated in 1 ml of RPMI 1640 supplemented with 2 mg/ml defatted BSA and 20 μM C5 -DMB-ceramide. Cells were washed and fixed as described in Example 5. Sequential micrographs were taken on a custom made laser confocal microscope at 400 nm intervals along the Z axis. Raw data were processed as described previously.

Structure (SMILES): CCCCCCCCCCCCCCC[C@H](O)[C@@H](N)CO (racemic) [dl-dihydrosphingosine]
- effect on sphingomyelin synthase enzyme activity [1]: no effect
- [%] inhibition of sphingomyelin biosynthetic activity ([1]; infected erythrocytes): 4%
- [%] inhibition of growth (P. falciparum strain FCB): 8%

Structure (SMILES): CCCCCCCCCC(=O)N[C@H](CN1CCOCC1)[C@H](O)c1ccccc1 (relative stereo) [PDMP, dl-threo-1-phenyl-2-decanoylamino-3-morpholino-1-propanol]
- [%] inhibition of sphingomyelin biosynthetic activity ([1]; infected erythrocytes): 31%
- inhibition of DNA synthesis (DNA synthesis): not inhibitory
- inhibition of protein synthesis (protein synthesis): not inhibitory
- fate of schizonts greater than 40 h in the cycle (P. falciparum schizonts): mature and rupture

Structure (SMILES): CCCCCCCCCCCCCCCC(=O)N[C@H](CN1CCOCC1)[C@H](O)c1ccccc1 (relative stereo) [PPMP, dl-threo-1-phenyl-2-palmitoylamino-3-morpholino-1-propanol]
- [%] inhibition of sphingomyelin biosynthetic activity ([1]; infected erythrocytes): 36%
- total cellular sphingomyelin synthase activity inhibited ([1]; 500 μM PPMP, infected erythrocytes): 80-90%
- change of sphingomyelin synthase activity ([1]; 0.05-0.5 μM PPMP, infected erythrocytes): initial, rapid decrease
- average inhibition of sphingomyelin synthase activity ([1]; 1-5 μM PPMP, infected erythrocytes): 35%
- concentration at which the sensitive pool of sphingomyelin synthase activity is completely inhibited ([1]; infected erythrocytes): 1 to 5 µM
- inhibition of sphingomyelin biosynthesis at 5 μM PPMP [%] ([1]; intact cells, 5 μM PPMP): 35%
- inhibition of sphingomyelin biosynthesis at 5 μM PPMP [%] ([2]; hypotonic lysates): 33%
- inhibition of sphingomyelin biosynthesis at 5 μM PPMP [%] ([2]; pellet of lysate (10^4 xG)): 30%
- inhibition of sphingomyelin biosynthesis at 5 μM PPMP [%] ([2]; supernatant of lysate (10^4 xG)): 3%
- effect on development of trophozoite stage parasites (P. falciparum): blocks
- relative efficacy in long term growth inhibition (P. falciparum): more effective than PDMP
- effect on rings in their first cycle growth (P. falciparum; 5 μM drug): completely inhibits
- development through the first cycle (P. falciparum; concentrations as low as 0.05 μM): do not stop development through the first cycle
- effect on schizont maturation or merozoite invasion into erythrocytes (P. falciparum schizonts; 5 μM PPMP): not to block
- fate of schizonts greater than 40 h in the cycle (P. falciparum schizonts): mature and rupture
- development of rings after being washed free of the drug (P. falciparum schizonts; rings formed in 5 μM PPMP): developed normally
- TVM morphology of rings formed in the presence of drug [3]: markedly devoid of tubular connections

Structure (SMILES): CCCCCCCCCC(=O)N[C@@H](CN1CCOCC1)[C@H](O)c1ccccc1 (relative stereo) [dl-erythro-PDMP]
- effect on sphingomyelin synthase enzyme activity [1]: no effect
- [%] inhibition of sphingomyelin biosynthetic activity ([1]; infected erythrocytes): 3%

Structure (SMILES): CCN(CC)CCO[C@H]1CC[C@@]2(C)C(=CC[C@@H]3[C@@H]2CC[C@]2(C)C(=O)CC[C@@H]32)C1 [U 18666 A]
- effect on sphingomyelin synthase enzyme activity [1]: no effect
- [%] inhibition of sphingomyelin biosynthetic activity ([1]; infected erythrocytes): 0%

Structure (SMILES): CN(C)CCCN1c2ccccc2CCc2ccccc21 [imipramine]
- effect on sphingomyelin synthase enzyme activity [1]: no effect
- [%] inhibition of sphingomyelin biosynthetic activity ([1]; infected erythrocytes): 0%

Structure (SMILES): CCCCCCCCCCCCC/C=C/[C@@H](O)[C@@H](N)CO [sphingosine]
- effect on sphingomyelin synthase enzyme activity [1]: no effect
- [%] inhibition of sphingomyelin biosynthetic activity ([1]; infected erythrocytes): 0%

Structure (SMILES): CCCCCCCCCCCCCCCCCCN [stearylamine]
- effect on sphingomyelin synthase enzyme activity [1]: no effect
- [%] inhibition of sphingomyelin biosynthetic activity ([1]; infected erythrocytes): 0%
